According to patent US20230322723A1, “COMPOUNDS FOR SUPPRESSING EGFR MUTANT CANCER AND PHARMACEUTICAL USE THEREOF” (J2H BIOTECH INC., priority 2020, published 2023):

Columns and labels:
[1] = test system: EGFR^del19+T790M+C797S; test: EGFR protein degradation test (Western blot) in Ba/F3 cells expressing mutant EGFR del19+T790M+C797S (DTC); type: cell-based; conditions: compounds at 0.1 μM and 1 μM, 24 hours, Western blot with EGFR antibody
Procedure, shortened: (§1)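 Ba/F3 cells expressing wild-type EGFR, del19+T790M+C797S or L858R+T790M+C797S EGFR were treated with compound at 0.1 μM and 1 μM for 24 h. Lysates (30 μg) were analysed by SDS-PAGE and EGFR Western blot, with bands quantified densitometrically.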

[2] = molecular target: T1, EGFR^L858R+T790M+C797S (Homo sapiens, UniProt P00533, C797S/L858R/T790M); test: EGFR protein degradation test (Western blot) in Ba/F3 cells expressing mutant EGFR L858R+T790M+C797S (LTC); type: cell-based; conditions: compounds at 0.1 μM and 1 μM, 24 hours, Western blot with EGFR antibody
T1 construct: expressed in transfected cells; host or cells: Ba/F3
Procedure, shortened: as §1

T1 sequence (P00533 25-1210 T790M/C797S/L858R): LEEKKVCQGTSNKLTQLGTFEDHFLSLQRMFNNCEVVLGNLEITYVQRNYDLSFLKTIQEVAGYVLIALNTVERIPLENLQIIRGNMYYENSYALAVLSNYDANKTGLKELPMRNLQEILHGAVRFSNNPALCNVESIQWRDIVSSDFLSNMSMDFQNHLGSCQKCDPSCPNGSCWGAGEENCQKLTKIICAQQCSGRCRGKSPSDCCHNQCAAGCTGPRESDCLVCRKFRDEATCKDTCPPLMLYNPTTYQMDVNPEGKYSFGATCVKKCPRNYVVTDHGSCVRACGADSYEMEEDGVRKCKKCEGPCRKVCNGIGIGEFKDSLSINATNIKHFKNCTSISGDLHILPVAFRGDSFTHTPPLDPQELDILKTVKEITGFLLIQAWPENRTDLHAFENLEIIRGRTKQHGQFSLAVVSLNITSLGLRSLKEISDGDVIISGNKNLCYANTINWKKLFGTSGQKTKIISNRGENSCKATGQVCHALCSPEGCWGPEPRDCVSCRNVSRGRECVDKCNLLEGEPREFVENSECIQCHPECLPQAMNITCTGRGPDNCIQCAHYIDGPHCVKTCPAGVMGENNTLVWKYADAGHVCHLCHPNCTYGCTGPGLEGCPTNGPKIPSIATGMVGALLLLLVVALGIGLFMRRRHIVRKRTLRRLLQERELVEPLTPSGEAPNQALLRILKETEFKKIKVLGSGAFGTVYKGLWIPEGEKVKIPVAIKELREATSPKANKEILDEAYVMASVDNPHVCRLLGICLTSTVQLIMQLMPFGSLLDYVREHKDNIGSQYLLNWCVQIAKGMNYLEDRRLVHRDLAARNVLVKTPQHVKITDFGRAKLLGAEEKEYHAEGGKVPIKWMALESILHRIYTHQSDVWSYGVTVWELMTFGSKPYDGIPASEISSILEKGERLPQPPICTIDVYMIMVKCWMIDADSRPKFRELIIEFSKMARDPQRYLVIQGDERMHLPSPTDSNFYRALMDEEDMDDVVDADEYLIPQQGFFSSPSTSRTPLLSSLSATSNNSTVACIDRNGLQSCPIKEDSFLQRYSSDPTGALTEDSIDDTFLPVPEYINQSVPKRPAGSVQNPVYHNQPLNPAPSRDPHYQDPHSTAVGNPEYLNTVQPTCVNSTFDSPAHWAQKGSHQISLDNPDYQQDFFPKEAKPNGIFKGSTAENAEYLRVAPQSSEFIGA

Structure (SMILES)	DTC (EGFR^del19+T790M+C797S) protein degradation [1]	LTC (EGFR^L858R+T790M+C797S) protein degradation [2]
COc1cc(N2CCC(CN3CC(C(=O)N[C@H](C(=O)N4C[C@H](O)C[C@H]4C(=O)NCc4ccc(-c5scnc5C)cc4)C(C)(C)C)C3)CC2)ccc1Nc1ncc(Cl)c(Nc2ccccc2N(C)S(C)(=O)=O)n1 [Compound 38, (2S,4R)-1-((S)-2-(1-((1-(4-((5-chloro-4-((2-(N-methylmethylsulfonamido)phenyl)amino)pyrimidin-2-yl)amino)-3-methoxyphenyl)piperidin-4-yl)methyl)azetidin-3-carboxamido)-3,3-dimethylbutanoyl)-4-hydroxy-N-(4-(4-methylthiazol-5-yl)benzyl)pyrrolidin-2-carboxamide]	− (Protein degradation < 20%)	− (Protein degradation < 20%)
COc1cc(N2CCC(CN3CCC(C(=O)N[C@H](C(=O)N4C[C@H](O)C[C@H]4C(=O)NCc4ccc(-c5scnc5C)cc4)C(C)(C)C)CC3)CC2)ccc1Nc1ncc(Cl)c(Nc2ccccc2N(C)S(C)(=O)=O)n1 [Compound 29, 1-((1-(4-((5-chloro-4-((2-(N-methylmethylsulfonamido)phenyl)amino)pyrimidin-2-yl)amino)-3-methoxyphenyl)piperidin-4-yl)methyl)-N—((S)-1-((2S,4R)-4-hydroxy-2-((4-(4-methylthiazol-5-yl)benzyl)carbamoyl)pyrrolidin-1-yl)-3,3-dimethyl-1-oxobutan-2-yl)piperidin-4-carboxamide]	− (Protein degradation < 20%)	− (Protein degradation < 20%)
COc1cc(N2CC3(CN(CCC(=O)Nc4cccc5c4C(=O)N(C4CCC(=O)NC4=O)C5=O)C3)C2)ccc1Nc1ncc(Cl)c(Nc2ccccc2N(C)S(C)(=O)=O)n1 (centres unmarked) [Compound 32, 3-(6-(4-((5-chloro-4-((2-(N-methylmethylsulfonamido)phenyl)amino)pyrimidin-2-yl)amino)-3-methoxyphenyl)-2,6-diazaspiro[3,3]heptan-2-yl)-N-(2-(2,6-dioxopiperidin-3-yl)-1,3-dioxoisoindolin-4-yl)propanamide]	− (Protein degradation < 20%)	− (Protein degradation < 20%)
COc1cc(N2CCN(CCCCC(=O)Nc3cccc4c3C(=O)N(C3CCC(=O)NC3=O)C4=O)CC2)ccc1Nc1ncc(Cl)c(Nc2ccccc2N(C)S(C)(=O)=O)n1 (centres unmarked) [Compound 1, 5-(4-(4-((5-chloro-4-((2-(N-methylmethylsulfonamido)phenyl)amino)pyrimidin-2-yl)amino)-3-methoxyphenyl)piperazin-1-yl)-N-(2-(2,6-dioxopiperidin-3-yl)-1,3-dioxoisoindolin-4-yl)pentanamide]	− (Protein degradation < 20%)	− (Protein degradation < 20%)
COc1cc(N2CCN(CC3CCN(Cc4ccc5c(c4)C(=O)N(C4CCC(=O)NC4=O)C5=O)CC3)CC2)ccc1Nc1ncc(Cl)c(Nc2ccccc2N(C)S(C)(=O)=O)n1 (centres unmarked) [Compound 41, N-(2-((5-chloro-2-((4-(4-((1-((2-(2,6-dioxopiperidin-3-yl)-1,3-dioxoisoindolin-5-yl)methyl)piperidin-4-yl)methyl)piperazin-1-yl)-2-methoxyphenyl)amino)pyrimidin-4-yl)amino)phenyl)-N-methylmethanesulfonamide]	− (Protein degradation < 20%)	− (Protein degradation < 20%)
COc1cc(N2CCC(N3CCN(CCOCCOCC(=O)Nc4cccc5c4C(=O)N(C4CCC(=O)NC4=O)C5=O)CC3)CC2)ccc1Nc1ncc(Cl)c(Nc2ccccc2N(C)S(C)(=O)=O)n1 (centres unmarked) [Compound 9, 2-(2-(2-(4-(1-(4-((5-chloro-4-((2-(N-methylmethylsulfonamido)phenyl)amino)pyrimidin-2-yl)amino)-3-methoxyphenyl)piperidin-4-yl)piperazin-1-yl)ethoxy)ethoxy)-N-(2-(2,6-dioxopiperidin-3-yl)-1,3-dioxoisoindolin-4-yl)acetamide]	− (Protein degradation < 20%)	− (Protein degradation < 20%)
COc1cc(N2CCN(CC3CCN(C(=O)CCc4ccc5c(c4)C(=O)N(C4CCC(=O)NC4=O)C5=O)CC3)CC2)ccc1Nc1ncc(Cl)c(Nc2ccccc2N(C)S(C)(=O)=O)n1 (centres unmarked) [Compound 64, N-(2-((5-chloro-2-((4-(4-((1-(3-(2-(2,6-dioxopiperidin-3-yl)-1,3-dioxoisoindolin-5-yl)propanoyl)piperidin-4-yl)methyl)piperazin-1-yl)-2-methoxyphenyl)amino)pyrimidin-4-yl)amino)phenyl)-N-methylmethanesulfonamide]	− (Protein degradation < 20%)	+ (Protein degradation 20~80%)
Cc1ncsc1-c1ccc(CNC(=O)[C@H]2C[C@@H](O)CN2C(=O)[C@@H](NC(=O)CN2CCN(C3CCN(c4ccc(Nc5ncc(Cl)c(Nc6ccccc6N(C)S(C)(=O)=O)n5)cc4F)CC3)CC2)C(C)(C)C)cc1 [Compound 19, (2R,4R)-1-((S)-2-(2-(4-(1-(4-((5-chloro-4-((2-(N-methylmethylsulfonamido)phenyl)amino)pyrimidin-2-yl)amino)-2-fluorophenyl)piperidin-4-yl)piperazin-1-yl)acetamido)-3,3-dimethylbutanoyl)-4-hydroxy-N-(4-(4-methylthiazol-5-yl)benzyl)pyrrolidin-2-carboxamide]	++ (Protein degradation > 80%)	+ (Protein degradation 20~80%)
COc1cc(N2CCC(CN3CCN(CC(=O)Nc4cccc5c4C(=O)N(C4CCC(=O)NC4=O)C5=O)CC3)CC2)ccc1Nc1ncc(Cl)c(Nc2ccccc2N(C)S(C)(=O)=O)n1 (centres unmarked) [Compound 23, 2-(4-((1-(4-((5-chloro-4-((2-(N-methylmethylsulfonamido)phenyl)amino)pyrimidin-2-yl)amino)-3-methoxyphenyl)piperidin-4-yl)methyl)piperazin-1-yl)-N-(2-(2,6-dioxopiperidin-3-yl)-1,3-dioxoisoindolin-4-yl)acetamide]	− (Protein degradation < 20%)	− (Protein degradation < 20%)
COc1cc(N2CCN(CCOCCOCC(=O)Nc3cccc4c3C(=O)N(C3CCC(=O)NC3=O)C4=O)CC2)ccc1Nc1ncc(Cl)c(Nc2ccccc2N(C)S(C)(=O)=O)n1 (centres unmarked) [Compound 8, 2-(2-(2-(4-(4-((5-chloro-4-((2-(N-methylmethylsulfonamido)phenyl)amino)pyrimidin-2-yl)amino)-3-methoxyphenyl)piperazin-1-yl)ethoxy)ethoxy)-N-(2-(2,6-dioxopiperidin-3-yl)-1,3-dioxoisoindolin-4-yl)acetamide]	− (Protein degradation < 20%)	− (Protein degradation < 20%)
